From ChEMBL document CHEMBL5608173, “Discovery of novel natural-product-derived mutant isocitrate dehydrogenases 1 inhibitors: Structure-based virtual screening, biological evaluation and structure-activity relationship study” (Eur J Med Chem, 2024)
Active and inactive are the calls of the source. The calls are words filed in the database; no cut-off is given here.

Experiments:
[1] = target: Isocitrate dehydrogenase [NADP] cytoplasmic (Homo sapiens, UniProt O75874, R132H); test: Inhibition of IDH1 R132H mutant in human U-87 MG cells assessed as reduction in 2-HG level incubated for 48 hrs in presence of NAD+ by resazurin fluorescence dye based Sigma MAK320-1 assay kit analysis; type: cell-based
Sequence of Isocitrate dehydrogenase [NADP] cytoplasmic (Homo sapiens, UniProt O75874, R132H) (O75874 2-414 R132H limits assumed): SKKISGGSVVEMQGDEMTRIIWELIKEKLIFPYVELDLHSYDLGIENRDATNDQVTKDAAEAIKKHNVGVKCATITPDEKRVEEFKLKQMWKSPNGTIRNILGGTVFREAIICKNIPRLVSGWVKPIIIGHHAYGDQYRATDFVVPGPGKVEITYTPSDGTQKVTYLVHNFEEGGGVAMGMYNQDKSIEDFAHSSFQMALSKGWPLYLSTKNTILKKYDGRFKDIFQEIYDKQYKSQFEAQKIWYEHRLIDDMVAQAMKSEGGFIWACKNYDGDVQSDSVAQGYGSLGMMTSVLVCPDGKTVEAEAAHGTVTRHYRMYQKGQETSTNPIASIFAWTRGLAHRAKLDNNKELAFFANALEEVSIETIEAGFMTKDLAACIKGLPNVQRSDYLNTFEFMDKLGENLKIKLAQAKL

HT-1080 [2] = test: Induction of apoptosis in human HT-1080 cells assessed as viable cells at 8 uM incubated for 48 hrs by Annexin V-FITC/PI staining based flow cytometric analysis (reference value: 96.07 %); type: functional; conditions: read-out: Activity
HT-1080 [3] = test: Cell cycle arrest in human HT-1080 cells assessed as S phase cells at 2 uM incubated for 24 hrs by PI staining based flow cytometric analysis (reference value: 18.3 %); type: functional
[4] = AUC (0 to t) in Sprague-Dawley rat at 0.5 mg/kg, iv measured after 24 hrs by LC-MS/MS analysis; type: ADME, organism-based; conditions: in vivo
HT-1080 [5] = test: Induction of apoptosis in human HT-1080 cells assessed as necrotic cells at 6 uM incubated for 24 hrs by Annexin V-FITC/PI staining based flow cytometric analysis (reference value: 0.38 %); type: functional
HT-1080 [6] = test: Induction of apoptosis in human HT-1080 cells assessed as necrotic cells at 2 uM incubated for 48 hrs by Annexin V-FITC/PI staining based flow cytometric analysis (reference value: 0.45 %); type: functional
HT-1080 [7] = test: Induction of apoptosis in human HT-1080 cells assessed as early apoptotic cells at 4 uM incubated for 48 hrs by Annexin V-FITC/PI staining based flow cytometric analysis (reference value: 2.33 %); type: functional
HT-1080 [8] = test: Induction of apoptosis in human HT-1080 cells assessed as late apoptotic cells at 6 uM incubated for 12 hrs by Annexin V-FITC/PI staining based flow cytometric analysis (reference value: 0.60 %); type: functional
HT-1080 [9] = test: Cell cycle arrest in human HT-1080 cells assessed as G2 phase cells at 8 uM incubated for 24 hrs by PI staining based flow cytometric analysis (reference value: 23.6 %); type: functional
[10] = Half-life in Sprague-Dawley rat at 5 mg/kg, po measured after 24 hrs by LC-MS/MS analysis; type: ADME, organism-based; conditions: in vivo
HT-1080 [11] = test: Induction of apoptosis in human HT-1080 cells assessed as necrotic cells at 6 uM incubated for 48 hrs by Annexin V-FITC/PI staining based flow cytometric analysis (reference value: 0.38 %); type: functional
HT-1080 [12] = test: Cell cycle arrest in human HT-1080 cells assessed as G1 phase cells at 10 uM incubated for 24 hrs by PI staining based flow cytometric analysis (reference value: 58.1 %); type: functional
HT-1080 [13] = test: Antitumor activity against human HT-1080 cells xenografted in female nude mouse assessed as suppression of tumor growth at 40 mg/kg, ip administered every 2 days for 8 days; type: functional, organism-based; conditions: time 8.0 day
HT-1080 [14] = test: Induction of apoptosis in human HT-1080 cells assessed as early apoptotic cells at 6 uM incubated for 24 hrs by Annexin V-FITC/PI staining based flow cytometric analysis (reference value: 2.36 %); type: functional
[15] = AUC (0 to t) in Sprague-Dawley rat at 5 mg/kg, po measured after 24 hrs by LC-MS/MS analysis; type: ADME, organism-based; conditions: in vivo
HT-1080 [16] = test: Cell cycle arrest in human HT-1080 cells assessed as G2 phase cells at 10 uM incubated for 24 hrs by PI staining based flow cytometric analysis (reference value: 23.6 %); type: functional
HT-1080 [17] = test: Induction of apoptosis in human HT-1080 cells assessed as viable cells at 6 uM incubated for 12 hrs by Annexin V-FITC/PI staining based flow cytometric analysis (reference value: 96.65 %); type: functional; conditions: read-out: Activity
U-87 MG [18] = test: Antiproliferative activity against human U-87 MG cells assessed as reduction in cell viability incubated for 72 hrs by MTT assay; type: functional, U-87MG ATCC
HT-1080 [19] = test: Induction of apoptosis in human HT-1080 cells assessed as viable cells at 6 uM incubated for 24 hrs by Annexin V-FITC/PI staining based flow cytometric analysis (reference value: 96.65 %); type: functional; conditions: read-out: Activity
[20] = tested on: Isocitrate dehydrogenase [NADP] cytoplasmic (Homo sapiens), O75874 [R132C]; test: Inhibition of recombinant human IDH1 R132C mutant extracted from Escherichia coli BL21 (DE3) cells using alpha-ketoglutarate as substrate at 0.2 uM incubated for 60 mins in presence of NADPH by absorbance based assay relative to control
Sequence of Isocitrate dehydrogenase [NADP] cytoplasmic (Homo sapiens), O75874 [R132C] (O75874 whole entry R132C): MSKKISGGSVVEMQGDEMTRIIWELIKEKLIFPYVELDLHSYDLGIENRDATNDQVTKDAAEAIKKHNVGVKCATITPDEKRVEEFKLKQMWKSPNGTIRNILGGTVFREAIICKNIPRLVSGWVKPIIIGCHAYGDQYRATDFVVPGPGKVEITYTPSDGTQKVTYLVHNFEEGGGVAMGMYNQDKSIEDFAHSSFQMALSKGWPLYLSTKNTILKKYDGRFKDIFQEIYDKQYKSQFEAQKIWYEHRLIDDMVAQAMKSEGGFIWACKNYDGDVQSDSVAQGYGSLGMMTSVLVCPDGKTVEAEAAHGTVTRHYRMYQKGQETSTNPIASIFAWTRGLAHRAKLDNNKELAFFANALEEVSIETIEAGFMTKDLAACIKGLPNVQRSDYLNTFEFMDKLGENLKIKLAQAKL

HT-1080 [21] = test: Induction of apoptosis in human HT-1080 cells assessed as early apoptotic cells at 6 uM incubated for 12 hrs by Annexin V-FITC/PI staining based flow cytometric analysis (reference value: 2.36 %); type: functional
HT-1080 [22] = test: Cell cycle arrest in human HT-1080 cells assessed as S phase cells at 4 uM incubated for 24 hrs by PI staining based flow cytometric analysis (reference value: 18.3 %); type: functional
U-87 MG [23] = test: Antiproliferative activity against human U-87 MG cells harboring IDH1 R132H mutant assessed as reduction in cell viability incubated for 72 hrs by MTT assay; type: functional, U-87MG ATCC
[24] = Oral bioavailability in Sprague-Dawley rat at 5 mg/kg measured after 24 hrs by LC-MS/MS analysis; type: ADME, organism-based; conditions: in vivo
HT-1080 [25] = test: Induction of apoptosis in human HT-1080 cells assessed as early apoptotic cells at 6 uM incubated for 48 hrs by Annexin V-FITC/PI staining based flow cytometric analysis (reference value: 2.36 %); type: functional
[26] = Tmax in Sprague-Dawley rat at 5 mg/kg, po measured after 24 hrs by LC-MS/MS analysis; type: ADME, organism-based; conditions: in vivo
HT-1080 [27] = test: Induction of apoptosis in human HT-1080 cells assessed as late apoptotic cells at 8 uM incubated for 48 hrs by Annexin V-FITC/PI staining based flow cytometric analysis (reference value: 1.15 %); type: functional
HT-1080 [28] = test: Induction of apoptosis in human HT-1080 cells assessed as early apoptotic cells at 8 uM incubated for 48 hrs by Annexin V-FITC/PI staining based flow cytometric analysis (reference value: 2.33 %); type: functional
HT-1080 [29] = test: Induction of apoptosis in human HT-1080 cells assessed as late apoptotic cells at 6 uM incubated for 48 hrs by Annexin V-FITC/PI staining based flow cytometric analysis (reference value: 0.60 %); type: functional
[30] = In vivo inhibition of IDH1 mutant in female nude mouse xenografted with human HT-1080 cells assessed as reduction in 2-HG levels in tumor at 40 mg/kg, ip administered twice at 1 hrs interval by resazurin fluorescence dye based Sigma MAK320-1 assay kit analysis relative to control; type: functional
[31] = target: Isocitrate dehydrogenase [NADP] cytoplasmic (Homo sapiens, UniProt O75874, R132C); test: Inhibition of recombinant human IDH1 R132C mutant extracted from Escherichia coli BL21 (DE3) cells using alpha-ketoglutarate as substrate incubated for 60 mins in presence of NADPH by absorbance based assay
Sequence of Isocitrate dehydrogenase [NADP] cytoplasmic (Homo sapiens, UniProt O75874, R132C) (O75874 2-414 R132C limits assumed): as the sequence (O75874 2-414 R132H limits assumed) above, with H131C counted along it

HT-1080 [32] = test: Induction of apoptosis in human HT-1080 cells assessed as early apoptotic cells at 2 uM incubated for 48 hrs by Annexin V-FITC/PI staining based flow cytometric analysis (reference value: 2.33 %); type: functional
[33] = Cmax in Sprague-Dawley rat at 5 mg/kg, po measured after 24 hrs by LC-MS/MS analysis; type: ADME, organism-based; conditions: in vivo

Question: With `COc1cc(O)c(-c2cc(-c3ccc(O)cc3)nc(N3CCNCC3)n2)cc1CC=C(C)C` as the compound, how does the EC50 [1] read?
Answer: The EC50 was 182 nM.

Question: And the viability at 8 µM (HT-1080 [2])?
Answer: Its viability at 8 µM is 69.6%.

Question: What about the Activity (HT-1080 [3]) of the same compound?
Answer: Its Activity is 22.4%.

Question: And the AUC(0-t) at 24 h [4]?
Answer: The AUC(0-t) at 24 h was 236 ng·h/mL.

Question: And the Activity (HT-1080 [5])?
Answer: Its Activity is 4.16%.

Question: And the Activity (HT-1080 [6])?
Answer: Its Activity is 1.16%.

Question: What about the Activity (HT-1080 [7]) of the same compound?
Answer: Its Activity is 4.48%.

Question: What about the Activity (HT-1080 [8]) of the same compound?
Answer: Its Activity is 2.92%.

Question: What about the Activity (HT-1080 [9]) of the same compound?
Answer: Its Activity is 15.9%.

Question: And the half-life [10]?
Answer: Its half-life is 128 min.

Question: What about the Activity (HT-1080 [11]) of the same compound?
Answer: The Activity was 1.35%.

Question: And the Activity (HT-1080 [12])?
Answer: The Activity was 45.4%.

Question: And the Activity (HT-1080 [13])?
Answer: The Activity was “Active”.

Question: And the Activity (HT-1080 [14])?
Answer: The Activity was 3.25%.

Question: What about the AUC(0-t) at 24 h [15] of the same compound?
Answer: The AUC(0-t) at 24 h was 370 ng·h/mL.

Question: What about the Activity (HT-1080 [16]) of the same compound?
Answer: Its Activity is 3%.

Question: What about the viability at 6 µM (HT-1080 [17]) of the same compound?
Answer: Its viability at 6 µM is 91.5%.

Question: What about the GC50 (U-87 MG [18]) of the same compound?
Answer: Its GC50 is 6.91 µM.

Question: What about the viability at 6 µM (HT-1080 [19]) of the same compound?
Answer: Its viability at 6 µM is 87.3%.

Question: And the inhibition [20]?
Answer: Its inhibition is 65.9%.

Question: And the Activity (HT-1080 [21])?
Answer: Its Activity is 0.62%.

Question: And the Activity (HT-1080 [22])?
Answer: The Activity was 22.9%.

Question: And the GC50 (U-87 MG [23])?
Answer: Its GC50 is 3.48 µM.

Question: What about the bioavailability [24] of the same compound?
Answer: Its bioavailability is 16.8%.

Question: And the Activity (HT-1080 [25])?
Answer: Its Activity is 11.25%.

Question: What about the Tmax [26] of the same compound?
Answer: Its Tmax is 11.4 min.

Question: And the Activity (HT-1080 [27])?
Answer: Its Activity is 17.93%.

Question: What about the Activity (HT-1080 [28]) of the same compound?
Answer: The Activity was 7.82%.

Question: What about the Activity (HT-1080 [29]) of the same compound?
Answer: Its Activity is 6.57%.

Question: And the inhibition in vivo at 40 mg/kg [30]?
Answer: The inhibition in vivo at 40 mg/kg was 96%.

Question: And the IC50 [31]?
Answer: The IC50 was 95.7 nM.

Question: What about the Activity (HT-1080 [32]) of the same compound?
Answer: The Activity was 5.1%.

Question: And the Cmax [33]?
Answer: The Cmax was 478 ng/mL.
